In article PMC8811960, “A Novel 2-Carbon-Linked Dimeric Artemisinin With Potent Antileukemic Activity and Favorable Pharmacology” (Frontiers in Oncology, 2022):
Structures can show the parent of a compound that is named as a salt.

Experiments:
HEL = experiment: alamarBlue growth inhibition, HEL; type: cell-based; conditions: Homo sapiens, 48h, mean of 2 independent assays ± SD
Description: (§1) Cytotoxicity was assessed using alamarBlue assays (Life Technologies, Grand Island, NY) following manufacturer’s guidelines. Cell death was verified by Annexin V/7-aminoactinomycin D (7AAD) staining (BioLegend, San Diego, CA) per manufacturer’s guidelines.

U937 = experiment: alamarBlue growth inhibition, U937; type: cell-based; conditions: Homo sapiens, U-937, U937, 48h, mean of 2 independent assays ± SD
Description: as §1

[1] = Phase I microsomal stability, mouse liver microsomes; type: in vitro ADME
Description: (§2) The metabolic stability of ART631 was assessed in human and mouse plasma and liver microsomes (LM). For phase I microsomal stability assays, analogs (10 µM in <1% acetonitrile) were incubated in PBS containing liver microsomes, with or without cofactors ([22]). Microsomal controls (without cofactors) were used to determine non-enzymatic degradation. All experiments were incubated at 37°C for 1h and performed in duplicate. Reactions were stopped with acetonitrile and analyzed as described below.
(§3) ART631 was extracted from 25 µL plasma or microsomal solutions with 100 µL acetonitrile containing artemisinin (i.e. the natural product) as internal standard. […] Mobile phase A was ammonium acetate (2mM) containing 0.1% formic acid, and mobile phase B was acetonitrile containing 0.1% formic acid. The gradient started with mobile phase B and was held at 40% for 0.5 minutes with a flow rate of 0.4 mL/min, then increased to 100% over 1.5 minutes and held for 2.0 minutes, and finally returned back to 40% mobile phase B and allowed to equilibrate for 2.0 minutes. An AB Sciex 5500 triple quadrupole mass spectrometer operated in positive electrospray ionization mode was used for the detection of ART631. For stability studies, the ratio of ART631 to the internal standard, artemisinin, was assessed. Calibration curves for ART631 were computed using the ratio of the peak area to that of the internal standard by using a quadratic equation with a 1/x^2 weighting function over the range of 8-1585 nM with dilutions of up to 1:10 (v/v).

Stability in plasma = type: in vitro ADME, human and mouse; conditions: species not given
Description: as §2
We compared the in vitro stability of ART576 and ART631 ( Table 3 ). ART576 was stable in plasma (<10% degradation), but unstable with degradation of >70% in human liver microsomes with co-factors and >90% in mouse liver microsomes with co-factors ( Table 3 ).

10 human AML cell lines = experiment: alamarBlue growth inhibition, panel of 10 human AML cell lines; type: cell-based
Description: as §1
Cell lines with adverse risk cytogenetic and molecular features, e.g. MLL rearrangements (ML2, MOLM14, MV4;11, THP1), FLT3-ITD (MOLM14, MV4;11), TP53 mutations (KG1a, ML2, THP1, U937), and NRAS/KRAS mutations (ML2, THP1), were among those exquisitely sensitive to ART631, with IC50s < 50 nM. The K562 cell line was the only exception, as it was resistant to all 3 of these ARTs. Based on this in vitro activity data combined with the drug stability data described below, ART631 was prioritized over ART576 for further in vitro and in vivo antileukemic efficacy experiments here ( Table 2 ).

TF1 = experiment: alamarBlue growth inhibition, TF1; type: cell-based; conditions: Homo sapiens, TF-1, TF1, 48h, mean of 2 independent assays ± SD
Description: as §1

THP1 = experiment: alamarBlue growth inhibition, THP1; type: cell-based; conditions: Homo sapiens, THP-1, THP1, 48h, mean of 2 independent assays ± SD
Description: as §1

KG1a = experiment: alamarBlue growth inhibition, KG1a; type: cell-based; conditions: Homo sapiens, KG-1a, 48h, mean of 2 independent assays ± SD
Description: as §1

MV4;11 = experiment: alamarBlue growth inhibition, MV4;11; type: cell-based; conditions: Homo sapiens, MV4;11, 48h, mean of 2 independent assays ± SD
Description: as §1

[2] = Phase I microsomal stability, human liver microsomes; type: in vitro ADME
Description: as §2, §3

[3] = Stability in human plasma (EDTA); type: in vitro ADME; conditions: 10 µM, 37°C, 1h
Description: as §2
as §3, with “Calibration curves for ART631 were computed using the ratio of the peak area to that of the internal standard by using a quadratic equation with a 1/x^2 weighting function over the range of 8-1585 nM with dilutions of up to 1:10 (v/v).” left out

HL60 = experiment: alamarBlue growth inhibition, HL60; type: cell-based; conditions: Homo sapiens, HL-60, HL60, 48h, mean of 2 independent assays ± SD
Description: as §1

MOLM14 = experiment: alamarBlue growth inhibition, MOLM14; type: cell-based; conditions: Homo sapiens, MOLM-14; MOLM14, 48h, alamarBlue, mean of 2 independent assays ± SD; read-out: IC50
Description: as §1
In this experiment, provided to show the entire concentration:response range, MOLM14 AML cells were cultured with a range of concentrations of artesunate (AS), ART838, ART631, and ART576 for 48h. Graph indicates growth inhibition relative to vehicle (DMSO)-treated controls by alamarBlue absorbance assays. Data points and error bars represent mean and SD of 3 independent experiments done in triplicate.

K562 = experiment: alamarBlue growth inhibition, K562; type: cell-based; conditions: Homo sapiens, K562, 48h, mean of 2 independent assays ± SD
Description: as §1

[4] = Stability in mouse plasma (EDTA); type: in vitro ADME; conditions: 10 µM, 37°C, 1h
Description: as §2
as §3, with “Calibration curves for ART631 were computed using the ratio of the peak area to that of the internal standard by using a quadratic equation with a 1/x^2 weighting function over the range of 8-1585 nM with dilutions of up to 1:10 (v/v).” left out

ML2 = experiment: alamarBlue growth inhibition, ML2; type: cell-based; conditions: Homo sapiens, ML-2, ML2, 48h, mean of 2 independent assays ± SD
Description: as §1

DDIT3 = experiment: qRT-PCR for DDIT3 mRNA; type: cell-based, human; conditions: MOLM14, 18h, ART631 200 nM, ART838 200 nM, AS 10 uM, similar results in MV4;11 and ML2
Description: Cells were pre-treated with […] ROS detection reagent 5-(and 6-)-chloromethyl-2’,7’-dichlorodihydrofluorescein diacetate (CM-H2DCFDA, Life Technologies) for 30 min, followed by the iron chelator deferoxamine mesylate (DFO; 11 mM) for 60 min. Cells were then treated with ART631 (200 nM) or DMSO control for 18h, with subsequent analysis by flow cytometry. Western blotting and quantitative reverse transcription PCR (qRT-PCR) to assess for molecular markers of ROS-mediated apoptosis were performed as previously described ([20]).
(§4) Figure 4 ART631 elevated ROS and CHOP levels and reduced MCL1 expression in MOLM14 AML cells. (A) MOLM14 AML cells were pre-treated with ROS detection reagent CM-H2DCFDA (5 mM) for 30 min, pre-treated with deferoxamine mesylate (DFO; 11 mM) for 60 min, and then treated with ART631 (200 nM) or DMSO control for 18h. They were then analyzed by flow cytometry. Graph represents %CM-H2DCFDA fluorescence compared to vehicle (DMSO) control treated cells. Error bars represent SD from 3 independent experiments. (B) MOLM14 AML cells were treated for 18h with vehicle, AS (10 uM), ART838 (200 nM), ART631 (200 nM), cytarabine (AraC; 150 nM), or SOR (5 uM). Protein was isolated and western blotted for MCL1, BCL2, CHOP, and β-actin. (C) MOLM14 cells were treated as in (B) for 18h, total RNA isolated, cDNA synthesized, and SYBR Green qRT-PCR performed in triplicates. Ct values were normalized to housekeeping gene GAPDH and fold change shown relative to vehicle (DMSO) control. Error bars represent SD from 3 independent experiments done in triplicate.

[5] = system: MOLM14, MV4;11, and HL60 human AML cells; experiment: Annexin V/7-AAD cell viability and apoptosis; type: cell-based; conditions: 30-45 min pre-incubation with 10 nM QVD
Description: as §1
MOLM14, MV4;11, and HL60 human AML cells were assessed for cell viability and caspase-dependent apoptosis following treatment with ART631 (200 nM), VEN (50 nM), SOR (5 µM), and combinations thereof.
Figure 3 ART631-based combination treatments reduced cell viability in AML cell lines. MOLM14, MV4;11, and HL60 AML cells were each treated for 18h with vehicle (DMSO) control, ART631 alone (200 nM), VEN alone (50 nM), SOR alone (5 uM), and 2- and 3-drug combinations, all with and without a 30-45 min pre-incubation with 10 nM pan-caspase inhibitor QVD-OPh (QVD). Treated cells were stained with 2.5 ug/mL 7-aminoactinomycin D (7-AAD) and 0.5 ug/mL allophycocyanin (APC)-conjugated Annexin V in Annexin V binding buffer and analyzed by flow cytometry. Graphs indicate % cell viability based on Annexin V/7-AAD dual staining. For MOLM14 and MV4;11, means and SDs shown are based on 3 independent experiments. HL60 cell data is from one experiment done in triplicate.

[6] = system: MOLM14, MV4;11, and HL60 human AML cells; design: method as in PMID 33560385; conditions: ART631 200 nM, VEN 50 nM, SOR 5 µM; MOLM14, MV4;11, HL60; cited from earlier work
MOLM14 cells = experiment: Total cellular ROS (CM-H2DCFDA flow cytometry); type: cell-based, human; conditions: MOLM14, DFO 11 uM, 60 min pre-treatment
Description: […] Cells were then treated with ART631 (200 nM) or DMSO control for 18h, with subsequent analysis by flow cytometry. Western blotting and quantitative reverse transcription PCR (qRT-PCR) to assess for molecular markers of ROS-mediated apoptosis were performed as previously described ([20]).
as §4, with “(A) MOLM14 AML cells were pre-treated with ROS detection reagent CM-H2DCFDA (5 mM) for 30 min, pre-treated with deferoxamine mesylate (DFO; 11 mM) for 60 min, and then treated with ART631 (200 nM) or DMSO control for 18h.” left out

[7] = 10 µM, 37°C, 1h, with cofactors
[8] = 10 µM, 37°C, 1h, without cofactors
[9] = NADPH-dependent phase I metabolism

| SMILES | IC50 (HEL) [nM] | IC50 (U937) [nM] | IC50 (TF1) [nM] | IC50 (THP1) [nM] | IC50 (KG1a) [nM] | IC50 (MV4;11) [nM] | IC50 (HL60) [nM] | IC50 (MOLM14) [nM] | IC50 (K562) [nM] | IC50 (ML2) [nM] | cell death as single agents [6] | other results |
| --- | --- | --- | --- | --- | --- | --- | --- | --- | --- | --- | --- | --- |
| C[C@@H]1CCC2[C@@H](C)[C@@H](C(=O)C[C@H]3O[C@@H]4O[C@@]5(C)CCC6[C@H](C)CCC([C@H]3C)[C@]64OO5)O[C@@H]3O[C@@]4(C)CCC1[C@@]23OO4 (stereo partly drawn) [ART576] | 80 ± 19 | 23 ± 1 | 49 ± 12 | > 1000 | 64 ± 4 | 38 ± 10 | 72 ± 18 | 43 ± 7 | > 1000 | 105 ± 12 | – | percentage remaining, Phase I Metabolism MLM NADPH(+) [1, 7]: 7%; percentage remaining, Phase I Metabolism MLM NADPH(-) [1, 8]: 96%; degradation in mouse liver microsomes with co-factors [1, 9]: > 90%; degradation in plasma (Stability in plasma): < 10%; number of human AML cell lines whose growth was inhibited (10 human AML cell lines; of 10 human AML cell lines tested): 8; IC50 (10 human AML cell lines; range over the inhibited cell lines of 10 human AML cell lines, read-out: IC50 range): 23 to 105 nM; percentage remaining, Phase I Metabolism HLM NADPH(+) [2, 7]: 26%; percentage remaining, Phase I Metabolism HLM NADPH(-) [2, 8]: 89%; degradation in human liver microsomes with co-factors [2, 9]: > 70%; percentage remaining, Plasma (EDTA) Human [3]: 91%; percentage remaining, Plasma (EDTA) Mouse [4]: 101% |
| C[C@H]1[C@H](OC(=O)CCC(=O)O)O[C@@H]2O[C@@]3(C)CC[C@H]4[C@H](C)CC[C@@H]1[C@@]24OO3 [AS, artesunate, reference compound] | 1110 ± 93 | 521 ± 96 | 1720 ± 302 | > 10000 | 2600 ± 458 | 610 ± 30 | 1060 ± 83 | 890 ± 99 | > 10000 | 1580 ± 94 | – | DDIT3 mRNA (DDIT3): increased |
| CC(C)[C@H](NC(=O)c1ccc2ccccc2n1)C(=O)N[C@@H](CC(=O)O)C(=O)COc1c(F)cccc1F [QVD-OPh] | – | – | – | – | – | – | – | – | – | – | – | effect of pre-treatment on apoptosis and cell death for all drugs and combinations [5]: almost fully inhibited |
| CNC(=O)c1cc(Oc2ccc(NC(=O)Nc3ccc(Cl)c(C(F)(F)F)c3)cc2)ccn1 [SOR, sorafenib] | – | – | – | – | – | – | – | – | – | – | less than 15% | – |
| CC1(C)CCC(CN2CCN(c3ccc(C(=O)NS(=O)(=O)c4ccc(NCC5CCOCC5)c([N+](=O)[O-])c4)c(Oc4cnc5[nH]ccc5c4)c3)CC2)=C(c2ccc(Cl)cc2)C1 [VEN, venetoclax] | – | – | – | – | – | – | – | – | – | – | less than 15% | – |
| CC(=O)N(O)CCCCCNC(=O)CCC(=O)N(O)CCCCCNC(=O)CCC(=O)N(O)CCCCCN [deferoxamine mesylate, reference compound] | – | – | – | – | – | – | – | – | – | – | – | effect of pre-treatment on ROS generation by ART631 (MOLM14 cells): diminished |
